# Entries after “also recorded” stand apart in the source; their conditions may differ.
# How the values were obtained:
# DKK-1 = assay: DHT-induced DKK-1 expression western blot in hair follicle dermal papilla cells; type: cell-based, human; conditions: HHFDPC; for inhibiting effect on DKK-1 expression (in words): DHT-induced, peptides at different concentrations (FIG. 4, FIG. 7)
# Method: To confirm whether a peptide consisting of the amino acid sequence of SEQ ID NO: 1 inhibits the expression of DKK-1, a hair loss-related factor, in hair follicle cells. Human hair follicle dermal papilla cells were seeded in 6-well plates at a density of 4×10^5 cells/well and cultured for 24 hours. After replacing with serum-free mesenchymal stem cell medium, the cells were cultured for 24 hours. The peptides were treated at concentrations of 10 μM, 50 μM, or 100 μM, respectively, and simultaneously treated with DHT, an inducer of hair loss protein DKK-1, at a concentration of 100 nM. As a positive control group, 5 μM of finasteride, a drug that inhibits androgens, was treated. DHT is known as a hair loss hormone that increases the expression of DKK-1 (Dickkopf-related protein 1), a hair loss-inducing factor, by activating androgen receptors. After culturing at 37° C. for 24 hours, the cells were washed with PBS, treated with lysis buffer to prepare cell lysates, and equal amounts of protein samples were prepared by BCA quantification. Electrophoresis was performed using a 10% SDS-PAGE gel. Proteins separated by SDS PAGE were transferred to a PVDF membrane. Blocking was performed at room temperature for 30 minutes using 5% skim milk. DKK-1 (cell signaling, USA) antibody was diluted 1:1000 in 3% BSA and reacted with the membrane at 4° C. for 16 hours. The membrane was then washed three times with 0.1% PBS-T (0.1% Tween-20 in PBS) for 15 minutes each. The secondary antibody was diluted 1:2000 in 5% skim milk and reacted at room temperature for 1 hour. The membrane was then washed three times with 0.1% PBS-T (0.1% Tween-20 in PBS) for 15 minutes each. After treatment with ECL solution (GE Healthcare, USA), protein band detection and densitometry were performed using ImageQuant 800 (Amersham, USA).
# The effect of inhibiting the expression of hair loss-related factors was compared between the novel peptide consisting of the amino acid sequence of SEQ ID NO: 1 and the peptide consisting of the amino acid sequence of SEQ ID NO: 10. The experiment was conducted in the same manner as described in Example 5, and it was confirmed whether the expression of DKK-1, a hair loss-related factor, was inhibited after treating HHFDPC with peptides at different concentrations.
# β-catenin = assay: Nuclear β-catenin western blot (promotion of proliferation mechanism of hair follicle cells); type: cell-based, human; conditions: HHFDPC; for translocation of β-catenin from the cytoplasm to the nucleus (in words): peptides at various concentrations (FIG. 6)
# Method: To confirm the effect of a peptide consisting of the amino acid sequence of SEQ ID NO: 1 on promoting the proliferation mechanism of hair follicle cells. Specifically, human hair follicle dermal papilla cells were seeded in a 6-well plate at a density of 4×10^5 cells/well and cultured for 24 hours. After replacing with serum-free mesenchymal stem cell medium, the cells were cultured for 24 hours. A peptide was treated at concentrations of 10 μM, 50 μM, or 100 μM, respectively, and incubated at 37° C. for 24 hours. As a positive control group, 10 ng/ml of recombinant human Wnt-3a protein was treated. After washing with PBS, nucleoproteins were isolated using a nucleoprotein extraction kit (Thermo scientific, USA) and quantified with BCA to prepare equal amounts of protein samples. The proteins separated by electrophoresis using a 10% SDS-PAGE gel were transferred to a PVDF membrane. Blocking was performed at room temperature for 30 minutes using 5% skim milk. β-catenin (cell signaling, USA) and HDAC1 (santa cruz, USA) antibodies were diluted 1:1000 in 3% BSA and reacted with the membrane at 4° C. for 16 hours. The membrane was washed three times with 0.1% PBS-T (0.1% Tween-20 in PBS) for 15 minutes each. The secondary antibody was diluted 1:2000 in 5% skim milk and reacted at room temperature for 1 hour. The membrane was then washed three times with 0.1% PBS-T (0.1% Tween-20 in PBS) for 15 minutes each. After treatment with ECL solution (GE Healthcare, USA), the membrane was detected.
# The proliferation-promoting effects of a novel peptide consisting of the amino acid sequence of SEQ ID NO: 1 and a peptide consisting of the amino acid sequence of SEQ ID NO: 10 on hair follicle cells were compared. The experiment was conducted in the same manner as described in Example 3, in which HHFDPC was treated with peptides at various concentrations and the translocation of β-catenin from the cytoplasm to the nucleus was measured.
# [1] = tested on: human hair follicle dermal papilla cells; assay: Hair follicle cell proliferation (SRB staining, absorbance 560 nm); type: cell-based; conditions: HHFDPC; for proliferation effect on hair follicle cells (in words): peptides at different concentrations (FIG. 1, FIG. 5)
# Method: To confirm the effect of a peptide consisting of the amino acid sequence of SEQ ID NO: 1 on promoting the proliferation of hair follicle cells. Specifically, human hair follicle dermal papilla cells were seeded in a 96-well plate at a density of 4×10^3 cells/well and cultured for 24 hours. After replacing with serum-free mesenchymal stem cell medium, the cells were cultured for 24 hours. The above peptide was treated at concentrations of 10 μM, 50 μM, or 100 μM, respectively, and incubated at 37° C. for 72 hours. As a positive control group, 1 μM of Minoxidil, a hair loss treatment drug, was treated. After completion of culturing, the culture supernatant was removed and the cells were fixed using ethanol. After washing with PBS, staining was performed by treating with SRB solution. After washing with 1% acetic acid, cells were observed under a microscope and destained by treating with 20 mM tris solution. Cell viability was measured by measuring absorbance at a wavelength of 560 nm using a spectrophotometer (SpectraMax iD3, Molecular Devices (USA, CA)).
# The proliferation effects of a novel peptide consisting of the amino acid sequence of SEQ ID NO: 1 and a peptide consisting of the amino acid sequence of SEQ ID NO: 10 disclosed in KR10-1285259 (Table 3) on hair follicle cell proliferation were compared. The experiment was conducted in the same manner as described in Example 2, and the cell proliferation effect was measured after treating HHFDPC with peptides at different concentrations.
# Cyclin D1 = assay: RT-PCR expression of Cyclin D1 in hair follicle dermal papilla cells; type: cell-based, human; conditions: HHFDPC, peptide 10, 50 or 100 μM, 24 hours, maximum effect (FIG. 3)
# Method: (§1) To confirm the effect of a peptide consisting of the amino acid sequence of SEQ ID NO: 1 on promoting hair follicle cell activity. Human hair follicle dermal papilla cells were seeded in 6-well plates at a density of 4×10^5 cells/well and cultured for 24 hours. After replacing with serum-free mesenchymal stem cell medium, the cells were cultured for 24 hours. A peptide was treated at concentrations of 10 μM, 50 μM, or 100 μM, respectively, and incubated at 37° C. for 24 hours. As a positive control group, 10 ng/mL of recombinant human Wnt-3a protein was treated. After washing with PBS, RNA was isolated by treating with 300 μL of easy blue (intron, Korea). After RNA quantification, cDNA synthesis was performed using a cDNA synthesis kit (enzynomics, Korea). Electrophoresis was performed on a 1.5% agarose gel and band detection was performed using a Bio-Rad gel image system.
# c-Myc = assay: RT-PCR expression of c-Myc in hair follicle dermal papilla cells; type: cell-based, human; conditions: HHFDPC, peptide 10, 50 or 100 μM, 24 hours, maximum effect (FIG. 3)
# Method: as §1
# Lef-1 = assay: RT-PCR expression of Lef-1 in hair follicle dermal papilla cells; type: cell-based, human; conditions: HHFDPC, peptide 10, 50 or 100 μM, 24 hours, maximum effect (FIG. 3)
# Method: as §1
sequence,measurement,setting,value
"AERRRELCRC [SEQ ID NO: 10, reference compound]",inhibiting effect on DKK-1 expression (in words),DKK-1,exhibit an inhibiting effect on DKK-1 expression in a concentration-dependent manner
same,translocation of β-catenin from the cytoplasm to the nucleus (in words),β-catenin,promote the translocation of β-catenin from the cytoplasm to the nucleus in a concentration-dependent manner
same,proliferation effect on hair follicle cells (in words),[1],exhibit a proliferation effect on hair follicle cells in a concentration-dependent manner
AERRREKCRC [SEQ ID NO: 1],inhibiting effect on DKK-1 expression (in words),DKK-1,exhibit an inhibiting effect on DKK-1 expression in a concentration-dependent manner; also recorded: inhibiting DKK-1 expression induced by DHT
same,DKK-1 expression level reduction compared to the negative control group (DHT treatment group),"DKK-1; high-concentration peptide treatment group, DHT 100 nM, 24 hours, western blot (FIG. 4)",about 50%
same,ability to inhibit the expression of DKK-1 compared with the known peptide,"DKK-1; same concentration, SEQ ID NO: 1 vs SEQ ID NO: 10 (FIG. 7)",significantly higher ability to inhibit the expression of DKK-1 than the known peptide
same,"nuclear translocation of β-catenin from the cytoplasm to the nucleus, increase","β-catenin; peptide 10, 50 or 100 μM, 24 hours, nucleoprotein western blot, maximum effect (FIG. 2)",up to 1.35 times
same,expression of β-catenin (in words),"β-catenin; peptide 10, 50 or 100 μM, 24 hours, western blot (FIG. 2)",expression of β-catenin increases
same,translocation of β-catenin from the cytoplasm to the nucleus (in words),β-catenin,promote the translocation of β-catenin from the cytoplasm to the nucleus in a concentration-dependent manner
same,proliferation mechanism promoting activity compared with the known peptide,"β-catenin; same concentration, SEQ ID NO: 1 vs SEQ ID NO: 10 (FIG. 6)",significantly higher proliferation mechanism promoting activity than the known peptide
same,Cyclin D1 expression increase compared to the control group,Cyclin D1,up to 1.96 times
same,c-Myc expression increase compared to the control group,c-Myc,up to 1.62 times
same,Lef-1 expression increase compared to the control group,Lef-1,up to 3 times
same,proliferation increase of hair follicle cells,"[1]; peptide 10, 50 or 100 μM, 72 hours, maximum effect (FIG. 1)",up to 155%
same,proliferation effect on hair follicle cells (in words),[1],proliferation was induced in a concentration-dependent manner; also recorded: exhibit a proliferation effect on hair follicle cells in a concentration-dependent manner
same,hair follicle cell proliferation promotion activity compared with the known peptide,"[1]; same concentration, SEQ ID NO: 1 vs SEQ ID NO: 10 (FIG. 5)",significantly higher hair follicle cell proliferation promotion activity than the known peptide
